Data set [1] deals with Escherichia coli. Description: Agar plate disc-diffusion, antibacterial. The data set is classed as cell-based. How it is done: (§1) The agar plate disc-diffusion method was applied. […] The discs were then placed onto the surface of agar plates (nutrient agar for bacteria and Sabouraud's dextrose agar for fungi) seeded with the test organism. Each plate contained 15 of the agar medium, previously seeded with 0.2 mL of the broth culture of each organism pre-grown for 18 hours. The plates were incubated at 37° C. for 48 hours and 72 hours for fungi. The inhibition zones were measured in mm. Discs impregnated with DMSO were used as a control, and their inhibition zone was subtracted from the tested compound's actual inhibition zone.
Background: A growth-free zone around the sample is the usual read-out of agar diffusion tests.

Data set [2] concerns Pseudomonas aeruginosa. Description: Agar plate disc-diffusion, antibacterial. The data set is classed as cell-based. The procedure:
as §1

The subject of data set [3] is Staphylococcus aureus. The data set can be described thus: Agar plate disc-diffusion, antibacterial. The data set is classed as cell-based. How it is done:
as §1

The subject of data set [4] is Bacillus cereus. Description: Agar plate disc-diffusion, antibacterial. The format is cell-based. How it is done:
as §1

The test system of data set [5] is Aspergillus flavus. Description: Agar plate disc-diffusion, antifungal. The format is cell-based. The procedure:
as §1

In data set [6] the test system is Chrysosporium keratinophilum. The data set can be described thus: Agar plate disc-diffusion, antifungal. The data set is classed as cell-based. How it is done: The agar plate disc-diffusion method was applied. Sterilized filter papers (6 mm in diameter) were wetted with 10 μL of a solution of N′-(2-(5-phenyl-1,3,4-oxadiazol-2-ylthio)acetoxy)-2-naphthimidamide (3) to be tested, containing 10 mg/mL in DMSO, and the discs were allowed to air dry. The discs were then placed onto the surface of agar plates (nutrient agar for bacteria and Sabouraud's dextrose agar for fungi) seeded with the test organism. Each plate contained 15 of the agar medium, previously seeded with 0.2 mL of the broth culture of each organism pre-grown for 18 hours. The plates were incubated at 37° C. for 48 hours and 72 hours for fungi. The inhibition zones were measured in mm. Discs impregnated with DMSO were used as a control, and their inhibition zone was subtracted from the tested compound's actual inhibition zone.

The mark [7] stands for this setting: A = concentration of comp. = 10,000 μL.
The mark [8] stands for this setting: B = concentration of comp. = 30.000 μL.
The mark [9] stands for this setting: C = concentration of comp. = 50,000 μL.
[10] abbreviates: column A (key only in Table 1: 10,000 μL).
Setting [11] is: column B (key only in Table 1: 30.000 μL).
The mark [12] stands for this setting: column C (key only in Table 1: 50,000 μL).

The structures appear in SMILES notation.

For `O=C(O)c1cn(C2CC2)c2cc(N3CCNCC3)c(F)cc2c1=O` [Cip., ciprofloxacin, reference compound], the inhibition zone is listed as 30 mm in data set [1] (setting [7]); 39 mm in data set [1] (setting [8]); 60 mm in data set [1] (setting [9]); 29 mm in data set [2] (setting [7]); 30 mm in data set [2] (setting [8]); 53 mm in data set [2] (setting [9]). In addition, the inhibition zone came to 43 mm in data set [3] (setting [7]); 44 mm in data set [3] (setting [8]); 53 mm in data set [3] (setting [9]); 29 mm in data set [4] (A = concentration of comp.); 30 mm in data set [4] (setting [8]); 42 mm in data set [4] (setting [9]).
In turn, `N/C(=N\OC(=O)CSc1nnc(-c2ccccc2)o1)c1cccc2ccccc12` [Compound 3, N′-(2-(5-phenyl-1,3,4-oxadiazol-2-ylthio)acetoxy)-1-naphthimidamide] showed a melting point of 177 to 178 °C. In data set [5] (setting [10]), this molecule came in with an inhibition zone of 15 mm. For the same molecule, the inhibition zone in data set [5] (setting [11]) came to 22 mm. Further, the inhibition zone in data set [5] (setting [12]) is 30 mm. In data set [6] (setting [10]), this molecule showed an inhibition zone of 29 mm. Besides, the inhibition zone in data set [6] (setting [11]) is on record as 37 mm. The molecule further had an inhibition zone in data set [6] (setting [12]) of 43 mm. The molecule also returned an inhibition zone in data set [1] (setting [7]) of 35 mm. Moreover, in data set [1] (setting [8]), the inhibition zone is 39 mm. The molecule further registered an inhibition zone in data set [1] (setting [9]) of 45 mm. The molecule further yielded an inhibition zone in data set [2] (setting [7]) of 22 mm. For the same molecule, the inhibition zone in data set [2] (setting [8]) stood at 30 mm. In data set [2] (setting [9]), this molecule returned an inhibition zone of 37 mm. Also, in data set [3] (setting [7]), the inhibition zone stood at 29 mm. Besides, the inhibition zone in data set [3] (setting [8]) is reported as 35 mm. The molecule also had an inhibition zone in data set [3] (setting [9]) of 44 mm. In data set [4] (A = concentration of comp.), the inhibition zone was 19 mm. The same molecule registered an inhibition zone in data set [4] (setting [8]) of 26 mm. The inhibition zone in data set [4] (setting [9]) was found to be 35 mm.

By melting point is commonly meant the temperature, or range, at which the solid turns liquid.

Values taken from patent US11897849B1, “N′-(2-(5-phenyl-1,3,4-oxadiazol-2-ylthio)acetoxy)-1-naphthimidamide as antimicrobial compound” (KING FAISAL UNIVERSITY, priority 2023, dated 2024).
